This is an account of results in patent publication US11793867B2, “Neoantigens and uses thereof” (BIONTECH US INC., priority 2017, dated 2023).

One assay has as its system CD8+ T cell responses. In words: In vivo immunogenicity assay, longmers and shortmers sequentially (FIG. 3 regimen). The note with it: CD8 T cells induced by Alg8 vaccination. More on the design: species or system C57BL/6 mice. The procedure:
FIG. 3 illustrates exemplary administration regimen for peptides comprising neoepitopes. The top panel depicts administering a prime dose and boost of longmer. The middle panel depicts administering a prime dose and boost of shortmer. The lower panel depicts administering a prime dose of longmer and boost of shortmer. The boost dose is administered on day 7, 14, and day 21 after the prime dose.
Peptide-specific T cells are functionally enumerated using the ELISPOT assay (BD Biosciences), which measures the release of IFNγ from T cells on a single cell basis. Cells incubated with antigen overnight (16-18 hours) at 37° C. The next day, the cell suspension was discarded, and wells were washed once with PBS, and twice with deionized water. […] Substrate (3-amino-9-ethyl-carbazole, 0.1 M Acetate buffer, H2O2) was added to all wells, and spot development monitored (approximately 10 minutes). […] The plates were analyzed on an ELISPOT reader (Cellular Technology Ltd.) with accompanying software. […]
MHC tetramers were purchased or manufactured on-site, and were used to measure peptide-specific T cell expansion in the immunogenicity assays. […] The phenotype of cells was assessed using markers such as CD44, CD62L, KLRG1, CD127, PD-1, LAG-3 and TIM-3. […] Cells were acquired on a FACS Calibur (Becton Dickinson) instrument, and were analyzed by use of Cellquest software (Becton Dickinson). […]

For assay [1] the following is noted: in humans; cited from earlier work.
For assay [2] the following is noted: in combination with a NYESO-1 peptide vaccine (in addition to Montanide); cited from earlier work.

“AVGITYTWTRLYASVLTGSLVSKTKK [Alg8, longmer murine neoantigen peptide, H-2Kb, T3 model]”: in the assay with CD8+ T cell responses, the “TCR avidity (EC50)” value is given as “similar”. Still for that read-out and setting: to ITYTWTRL [Alg8-shortmer] belongs “similar”. For the substance poly-ICLC, in assay [1], the “CD4+ and CD8+ responses” value is “durable CD4+ and CD8+ responses”. Moreover, the “patients showing induction of CD4+ and CD8+ T cell, as well as antibody responses to the peptide” value in assay [2] was over 90%.
